Results as given in patent US6642392B1 (priority 1997, dated 2003).
Like-named read-outs stand apart in the source and are kept apart here.

How the values were obtained:
Format in all cases: in vivo
[1] = tested on: Eiysiphe graminis f. sp. tritici; assay: Test A: wheat powdery mildew, preventive spray on wheat seedlings; conditions: for Test A disease control rating (100 = 100% disease control, 0 = no disease control): wheat seedlings sprayed to run-off, inoculated the following day, rating relative to controls, unmarked compounds (standard test rate); for Test A disease control rating: wheat powdery mildew
Summary of the method: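 Compounds (3% acetone, 250 ppm Trem 014) sprayed to run-off on wheat seedlings, inoculated next day with spore dust. Incubated 7 days at 20° C before disease rating, 0–100% control relative to untreated controls.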

Puccinia recondita = assay: Test B: wheat leaf rust, preventive spray on wheat seedlings; conditions: for Test B disease control rating (100 = 100% disease control, 0 = no disease control): wheat seedlings sprayed to run-off, inoculated the following day, rating relative to controls, unmarked compounds (standard test rate); for Test B disease control rating: wheat leaf rust
Summary of the method: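 Wheat seedlings were sprayed to run-off with compound (3% acetone, 250 ppm Trem 014), then inoculated with P. recondita spores the next day. They were held 24 h saturated at 20 °C, then 6 days at 20 °C. Ratings are 0–100% disease control versus controls.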

Pyricularia oryzae = conditions: for Test C disease control rating (100 = 100% disease control, 0 = no disease control): rice seedlings sprayed to run-off, inoculated the following day, rating relative to controls, unmarked compounds (standard test rate); for Test C disease control rating: rice blast
Phytophthora infestans = conditions: for Test D disease control rating (100 = 100% disease control, 0 = no disease control): tomato seedlings sprayed to run-off, inoculated the following day, rating relative to controls, unmarked compounds (standard test rate); for Test D disease control rating: tomato late blight
Botrytis cinerea = assay: Test E: gray mold, preventive spray on cucumber seedlings; conditions: for Test E disease control rating (100 = 100% disease control, 0 = no disease control): cucumber seedlings sprayed to run-off, inoculated the following day, rating relative to controls, unmarked compounds (standard test rate); for Test E disease control rating: gray mold on cucumber
Summary of the method: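 Compounds in 3% acetone were suspended with 250 ppm Trem 014 surfactant and sprayed to run-off on cucumber seedlings. B. cinerea spores were inoculated next day, then 48 h saturated humidity at 20° C and 5 days at 20° C. Disease control rated 0–100% versus controls.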

[2] = 100 = 100% disease control, 0 = no control relative to controls, unmarked entries (standard test concentration)
[3] = 100 = 100% disease control, 0 = no control, unmarked entries (standard test concentration)

SMILES | Test A disease control rating (100 = 100% disease control, 0 = no disease control) [1] [%] | Test B disease control rating (100 = 100% disease control, 0 = no disease control) (Puccinia recondita) [%] | Test C disease control rating (100 = 100% disease control, 0 = no disease control) (Pyricularia oryzae) [%] | Test D disease control rating (100 = 100% disease control, 0 = no disease control) (Phytophthora infestans) [%] | Test E disease control rating (100 = 100% disease control, 0 = no disease control) (Botrytis cinerea) [%] | Test A disease control rating [1, 2] [%] | Test B disease control rating (Puccinia recondita; [3]) [%] | Test C disease control rating (Pyricularia oryzae; [3]) [%] | Test D disease control rating (Phytophthora infestans; [3]) [%] | Test E disease control rating (Botrytis cinerea; [3]) [%] | other results
CC(COc1ccccc1)NC(=O)C1(C)CC1(Cl)Cl (mixture of isomers) [compound 311] | 84 | 0 | 0 | 0 | 0 |  |  |  |  |  | 
CCC1(C(=O)NCCCn2c(Cl)cc(Cl)c2Cl)C(C)C1(Cl)Cl (stereo not shown) [compound 148] |  |  |  |  |  | 0 | 0 | 74 | 0 | 0 | 
C=CC(C)(CC)C(C#N)C(=O)NC(C)COc1cc(Cl)ccc1F (mixture of isomers) [compound 297] | 0 | 0 | 100 | 46 | 0 |  |  |  |  |  | 
C[C@H](COc1ccc(F)cc1F)NC(=O)C(C#N)C(C)(C)C (single isomer, unassigned) [27a] |  |  |  |  |  | 38 | 0 | 100 | 81 | 0 | 
Cc1c(Br)cc(C#N)n1OCC(C)NC(=O)C(C#N)C(C)C(C)(C)C (mixture of isomers) [compound 70] |  |  |  |  |  | 63 | 0 | 0 | 13 | 0 | 
CC(COc1cccc(Cl)c1)NC(=O)C(C#N)C(C)(C)C (single isomer, unassigned) [6c] |  |  |  |  |  | 0 | 0 | 97 | 9 | 0 | 
CC(COc1cccc(Cl)c1)NC(=O)C(C#N)C(C)(C)C (single isomer, unassigned) [6a] |  |  |  |  |  | 0 | 0 | 74 | 0 | 0 | 
C#CC(C)(C=C)C(C#N)C(=O)NC(C)COc1cc(F)ccc1F (mixture of isomers) [compound 301] | 62 | 0 | 100 | 24 | 0 |  |  |  |  |  | 
CC(COc1ccccc1Cl)NC(=O)C(C#N)C(C)(C)C (mixture of isomers) [5a] |  |  |  |  |  | 0 | 68 | 0 | 0 | 0 | 
CC(COc1ccccc1CC#N)NC(=O)C(C#N)C(C)C(C)(C)C (mixture of isomers) [compound 61] |  |  |  |  |  |  |  |  |  |  | Test A disease control rating ([1]; tested at 40 ppm): 74%; Test B disease control rating (Puccinia recondita; tested at 40 ppm): 0%; Test C disease control rating (Pyricularia oryzae; tested at 40 ppm): 73%; Test D disease control rating (Phytophthora infestans; tested at 40 ppm): 0%; Test E disease control rating (Botrytis cinerea; tested at 40 ppm): 0%
CC(COc1ccccc1F)NC(=O)C(C#N)C(C)(C)C (mixture of isomers) [2a] |  |  |  |  |  | 0 | 0 | 0 | 0 | 55 | 
CC(COc1ccc(Br)cc1)NC(=O)C(C#N)C(C)(C)C (single isomer, unassigned) [10a] |  |  |  |  |  | 0 | 27 | 86 | 23 | 0 | 
CC(COc1cccc(F)c1)NC(=O)C(C#N)C(C)(C)C (single isomer, unassigned) [3b] |  |  |  |  |  | 0 | 0 | 86 | 32 | 0 | 
C=CC(C)(CC)C(C#N)C(=O)NC(C)COc1cc(F)ccc1Cl (mixture of isomers) [compound 298] | 62 | 0 | 99 | 99 | 0 |  |  |  |  |  | 
C#CC(C)(C)C(C#N)C(=O)NC(C)COc1cc(F)ccc1F (mixture of isomers) [compound 211] |  |  |  |  |  | 63 | 0 | 100 | 76 | 0 | 
C=CCC(C#N)C(=O)NC(C)C(Oc1cc(F)ccc1C#N)c1ccccc1 (mixture of isomers) [compound 284] | 0 | 0 | 99 | 0 | 0 |  |  |  |  |  | 
CCCC(C#N)C(=O)NC(C)C(Oc1cc(F)ccc1C#N)c1ccccc1 (mixture of isomers) [compound 287] | 0 | 0 | 97 | 23 | 0 |  |  |  |  |  | 
C=CC(C)(C)C(C#N)C(=O)NC(C)COc1cc(C)ccc1F (mixture of isomers) [compound 282] | 0 | 0 | 100 | 24 | 0 |  |  |  |  |  | 
CCC1(C(=O)NC(C)COc2ccc(Br)cc2F)C(C)C1(Cl)Cl (mixture of isomers) [compound 122] |  |  |  |  |  | 0 | 0 | 0 | 0 | 0 | 
C[C@H](COc1c(F)cc(F)cc1F)NC(=O)C(C#N)C(C)(C)C (single isomer, unassigned) [189b] |  |  |  |  |  | 0 | 0 | 100 | 35 | 0 | 
C[C@H](COc1cc(F)c(Cl)cc1F)NC(=O)C(C#N)C(C)(C)C (single isomer, unassigned) [173b] |  |  |  |  |  | 0 | 0 | 90 | 91 | 0 | 
CCC1(C(=O)NC(C)C=Cc2ccccc2)C(C)C1(Cl)Cl (mixture of isomers) [compound 263] | 86 | 0 | 86 | 33 | 0 |  |  |  |  |  | 
CCc1cccc(OCC(C)NC(=O)C(C#N)C(C)(C)C)c1 (mixture of isomers) [compound 177] |  |  |  |  |  | 62 | 0 | 94 | 35 | 6 | 
CCC1(C(=O)NC(C)COc2ccc(C(C)(C)C)cc2)C(C)C1(Cl)Cl (stereo not shown) [compound 241] | 38 | 0 | 74 | 74 | 0 |  |  |  |  |  | 
C=CC(C)(C)C(C#N)C(=O)N[C@H](C)COc1cc(Cl)ccc1Cl (single isomer, unassigned) [215a] | 63 | 0 | 99 | 45 | 0 |  |  |  |  |  | 
CCC1(C(=O)NCCCc2ccccc2)C(C)C1(Cl)Cl (stereo not shown) [compound 155] |  |  |  |  |  | 71 | 0 | 86 | 23 | 0 | 
